Data from paper PMC5030359, “Cathelicidin Antimicrobial Peptides with Reduced Activation of Toll-Like Receptor Signaling Have Potent Bactericidal Activity against Colistin-Resistant Bacteria” (mBio, 2016).
In brackets after ≈: the same amount, converted by molar mass. Several values for one entry are separate records, joined by “and”; a condition that tells them apart may be missing. Equal entries are not always repeated. Where two headings read alike, the source gives them in different places. Bridge positions count the residues as written; N and C are the ends. Square brackets hold non-standard residues; d marks the D form. Peptide text beside a SMILES is read from it. * marks the point of attachment. X1 = CC[C@H](C)CCCCC(=O)*; Dab = NCC[C@H](N)C(=O)O

What was measured:
Enterobacter cloacae = settings: strains with MIC of 16 µg/ml or less / strains tested
Klebsiella pneumoniae = settings: for # strains inhibited at 16 µg/ml peptide K. p.: strains with MIC of 16 µg/ml or less / strains tested
Procedure: (§1) The bacterial species tested are Klebsiella pneumoniae (K. p.), Serratia marcescens (S. m.), Enterobacter cloacae (E. cl.), Escherichia coli (E. c.), and Pseudomonas aeruginosa (P. a.). MICs were determined by the microdilution assay. […] The results are the median values of at least three independent assays.
(§2) Antimicrobial activity was determined using the broth microdilution method based on the guidelines of the Clinical and Laboratory Standards Institute (CLSI) ([39]), using cation-adjusted Mueller-Hinton broth (CAMHB) as the testing medium. Reference Gram-positive and Gram-negative bacteria were tested, including both enteric and Pseudomonas aeruginosa strains. Each MIC was determined in at least three independent assays.

Serratia marcescens = settings: for # strains inhibited at 16 µg/ml peptide S. m.: strains with MIC of 16 µg/ml or less / strains tested
Procedure: as §1, §2

K. pneumoniae = experiment: Bacterial killing, colony formation (CFU); type: cell-based, Klebsiella pneumoniae; settings: 2 µM; Fig. 5C (K. pneumoniae 59) and data not shown
E. cloacae 4080 = experiment: Bacterial killing, colony formation (CFU); type: cell-based, Enterobacter cloacae; settings: 25 µg/ml kanamycin sulfate, E. cloacae 4080
Procedure: The number of CFU of E. cloacae 4080 were quantified as a function of time of incubation with a 2 µM concentration of the individual peptides. In the reactions with kanamycin (Kan), 25 µg/ml of kanamycin sulfate was used. […] The initial inoculum was 10^6 CFU in LB.

Procedure for 19 Gram-negative strains: (A) Sequences of the cathelicidins, the numbers of bacterial strains killed, and hRBC lysis by the cathelicidins. […] The bacterial species tested are Klebsiella pneumoniae (K. p.), Serratia marcescens (S. m.), Enterobacter cloacae (E. cl.), Escherichia coli (E. c.), and Pseudomonas aeruginosa (P. a.). MICs were determined by the microdilution assay. […] The results are the median values of at least three independent assays.
We tested a panel of cathelicidins for inhibiting growth of 19 Gram-negative strains from the family Enterobacteriaceae and the nonfermentative bacteria. The species tested were Enterobacter cloacae ([2]), Escherichia coli ([5]), Klebsiella pneumoniae ([4]), Pseudomonas aeruginosa ([4]), and Serratia marcescens ([4]). All of the strains selected have been characterized for their antibiotic resistance profiles.
as §2
Procedure for E. faecalis: as §2
Procedure for Pseudomonas aeruginosa: as §1, §2
Procedure for S. aureus: as §2

SMILES	# strains inhibited at 16 µg/ml peptide E. cl. (Enterobacter cloacae)	# strains inhibited at 16 µg/ml peptide E. c. (Escherichia coli)	# strains inhibited at 16 µg/ml peptide K. p. (Klebsiella pneumoniae)	# strains inhibited at 16 µg/ml peptide P. a. (Pseudomonas aeruginosa)	# strains inhibited at 16 µg/ml peptide S. m. (Serratia marcescens)	No. of strains inhibited at 16 µg/ml/total no. of strains (19 Gram-negative strains)	MIC E. faecalis 29212 (E. faecalis)	MIC E. faecalis 51299 (E. faecalis)	MIC S. aureus 25923 (S. aureus)	MIC S. aureus 29213 (S. aureus)	fold reduction in CFU, colistin-resistant K. pneumoniae (K. pneumoniae)	MIC K. pneumoniae 59 (Klebsiella pneumoniae; carbapenem-resistant, colistin-resistant clinical isolate (ST258))	MIC (µM) K. pneumoniae 88 (Klebsiella pneumoniae; carbapenem-resistant, colistin-resistant clinical isolate (ST674), microbroth MIC (SD))	concentration usually required to inhibit growth of S. marcescens strains (Serratia marcescens; S. marcescens strains)	No. of strains inhibited at 16 µg/ml/total no. of strains (19 Gram-negative strains; 19 Gram-negative strains, MIC of 16 µg/ml or less)	reduction of CFU over time (E. cloacae 4080)
CC[C@H](C)[C@H](NC(=O)[C@@H](NC(=O)[C@@H]1CCCN1C(=O)[C@H](CO)NC(=O)[C@H](CC(C)C)NC(=O)[C@H](CCCCN)NC(=O)[C@H](CCCCN)NC(=O)[C@H](C)NC(=O)[C@H](CC(C)C)NC(=O)[C@H](CCCCN)NC(=O)[C@H](CCCCN)NC(=O)[C@H](CC(C)C)NC(=O)[C@H](CCCCN)NC(=O)[C@H](CCCCN)NC(=O)[C@H](CCCNC(=N)N)NC(=O)[C@H](CC(C)C)NC(=O)[C@H](CCCNC(=N)N)NC(=O)[C@H](CCCCN)NC(=O)[C@H](C)NC(=O)[C@H](CCCNC(=N)N)NC(=O)CN)C(C)C)C(=O)N1CCC[C@H]1C(=O)N[C@@H](CC(C)C)C(=O)N[C@@H](CC(C)C)C(=O)N[C@@H](Cc1c[nH]cn1)C(=O)N[C@@H](CC(C)C)C(=O)NCC(=O)O [BMAP-27C] (H-GRAKRLRKKLKKLAKKLSPVIPLLHLG-OH)	2/2	6/6	4/4	4/4	2/3	17/19	>32 mg/L	>32 mg/L	>32 mg/L	32 mg/L (≈ 10.4 µM)	–	–	–	–	–	–
CC[C@H](C)[C@H](NC(=O)[C@H](CCCCN)NC(=O)[C@H](CCC(=O)O)NC(=O)[C@H](CCCCN)NC(=O)[C@H](CO)NC(=O)[C@H](CCCCN)NC(=O)[C@H](CCCNC(=N)N)NC(=O)[C@H](Cc1ccccc1)NC(=O)[C@H](Cc1ccccc1)NC(=O)[C@H](CC(=O)O)NC(=O)CNC(=O)[C@H](CC(C)C)NC(=O)[C@@H](N)CC(C)C)C(=O)NCC(=O)N[C@@H](CCCCN)C(=O)N[C@@H](CCC(=O)O)C(=O)N[C@@H](Cc1ccccc1)C(=O)N[C@@H](CCCCN)C(=O)N[C@@H](CCCNC(=N)N)C(=O)N[C@H](C(=O)N[C@H](C(=O)N[C@@H](CCC(N)=O)C(=O)N[C@@H](CCCNC(=N)N)C(=O)N[C@H](C(=O)N[C@@H](CCCCN)C(=O)N[C@@H](CC(=O)O)C(=O)N[C@@H](Cc1ccccc1)C(=O)N[C@@H](CC(C)C)C(=O)N[C@@H](CCCNC(=N)N)C(=O)O)[C@@H](C)CC)C(C)C)[C@@H](C)CC [LL-29] (H-LLGDFFRKSKEKIGKEFKRIVQRIKDFLR-OH; N-terminus and C-terminus assumed)	1/2	2/6	0/4	0/4	0/3	4/19	–	–	–	–	–	–	–	–	–	–
CC[C@H](C)CCCCC(=O)N[C@@H](CCN)C(=O)N[C@H](C(=O)N[C@@H](CCN)C(=O)N[C@H]1CCNC(=O)[C@H]([C@@H](C)O)NC(=O)[C@H](CCN)NC(=O)[C@H](CCN)NC(=O)[C@H](CC(C)C)NC(=O)[C@@H](CC(C)C)NC(=O)[C@H](CCN)NC1=O)[C@@H](C)O [Colistin, colistin] (X1-[Dab]T[Dab][Dab][Dab][dL]L[Dab][Dab]T; lactam 4-C (inferred); N-terminus assumed)	–	–	–	–	–	–	–	–	–	–	1.4 fold	6.4 µM (≈ 7.48 µg/mL)	6.4 µM (≈ 7.48 µg/mL)	–	–	–
CC[C@H](C)[C@H](NC(=O)[C@H](CCCCN)NC(=O)[C@H](CCC(=O)O)NC(=O)[C@H](CCCCN)NC(=O)[C@H](CO)NC(=O)[C@H](CCCCN)NC(=O)[C@H](CCCNC(=N)N)NC(=O)[C@H](Cc1ccccc1)NC(=O)[C@H](Cc1ccccc1)NC(=O)[C@H](C)NC(=O)CNC(=O)[C@H](CC(C)C)NC(=O)[C@@H](N)CC(C)C)C(=O)NCC(=O)N[C@@H](CCCCN)C(=O)N[C@@H](C)C(=O)N[C@@H](Cc1ccccc1)C(=O)N[C@@H](CCCCN)C(=O)N[C@@H](CCCNC(=N)N)C(=O)N[C@H](C(=O)N[C@H](C(=O)N[C@@H](CCC(N)=O)C(=O)N[C@@H](CCCNC(=N)N)C(=O)N[C@H](C(=O)N[C@@H](CCCCN)C(=O)N[C@@H](CC(=O)O)C(=O)N[C@@H](Cc1ccccc1)C(=O)N[C@@H](CC(C)C)C(=O)N[C@@H](CCCNC(=N)N)C(=O)O)[C@@H](C)CC)C(C)C)[C@@H](C)CC [LL-29V] (H-LLGAFFRKSKEKIGKAFKRIVQRIKDFLR-OH)	1/2	3/6	0/4	0/4	0/3	11/19	–	–	–	–	–	–	–	–	–	–
CC[C@H](C)[C@H](NC(=O)[C@@H](NC(=O)[C@@H]1CCCN1C(=O)[C@H](CO)NC(=O)[C@H](CC(C)C)NC(=O)[C@H](CCCCN)NC(=O)[C@H](CCCCN)NC(=O)[C@H](Cc1ccccc1)NC(=O)[C@H](CC(C)C)NC(=O)[C@H](CCCCN)NC(=O)[C@H](CCCCN)NC(=O)[C@H](Cc1ccccc1)NC(=O)[C@H](CCCCN)NC(=O)[C@H](CCCCN)NC(=O)[C@H](CCCNC(=N)N)NC(=O)[C@H](Cc1ccccc1)NC(=O)[C@H](CCCNC(=N)N)NC(=O)[C@H](CCCCN)NC(=O)[C@H](Cc1ccccc1)NC(=O)[C@H](CCCNC(=N)N)NC(=O)CN)C(C)C)C(=O)N1CCC[C@H]1C(=O)N[C@@H](CC(C)C)C(=O)N[C@@H](CC(C)C)C(=O)N[C@@H](Cc1c[nH]cn1)C(=O)N[C@@H](CC(C)C)C(=O)NCC(=O)O [BMAP-27] (H-GRFKRFRKKFKKLFKKLSPVIPLLHLG-OH; N-terminus and C-terminus assumed)	2/2	6/6	4/4	4/4	3/3	19 and 19/19	>32 mg/L	>32 mg/L	16 mg/L (≈ 4.87 µM)	16 mg/L (≈ 4.87 µM)	–	–	–	8 µg/mL	≥ 16	–
CC[C@H](C)[C@H](NC(=O)[C@@H](NC(=O)[C@@H]1CCCN1C(=O)[C@H](CO)NC(=O)[C@H](CC(C)C)NC(=O)[C@H](CCCCN)NC(=O)[C@H](CCCCN)NC(=O)[C@H](Cc1ccccc1)NC(=O)[C@H](CC(C)C)NC(=O)[C@H](CCCCN)NC(=O)[C@H](CCCCN)NC(=O)[C@H](Cc1ccccc1)NC(=O)[C@H](CCCCN)NC(=O)[C@H](CCCCN)NC(=O)[C@H](CCCNC(=N)N)NC(=O)[C@H](CC(C)C)NC(=O)[C@H](CCCNC(=N)N)NC(=O)[C@H](CCCCN)NC(=O)[C@H](Cc1ccccc1)NC(=O)[C@H](CCCNC(=N)N)NC(=O)CN)C(C)C)C(=O)N1CCC[C@H]1C(=O)N[C@@H](CC(C)C)C(=O)N[C@@H](CC(C)C)C(=O)N[C@@H](Cc1c[nH]cn1)C(=O)N[C@@H](CC(C)C)C(=O)NCC(=O)O [BMAP-27A] (H-GRFKRLRKKFKKLFKKLSPVIPLLHLG-OH; N-terminus and C-terminus assumed)	2/2	6/6	4/4	4/4	3/3	19/19	>32 mg/L	>32 mg/L	16 mg/L (≈ 4.92 µM)	16 mg/L (≈ 4.92 µM)	–	–	–	–	–	–
NC[C@H]1O[C@H](O[C@H]2[C@H](O)[C@@H](O[C@H]3O[C@H](CO)[C@@H](O)[C@H](N)[C@H]3O)[C@H](N)C[C@@H]2N)[C@H](O)[C@@H](O)[C@@H]1O [kanamycin]	–	–	–	–	–	–	–	–	–	–	–	–	–	–	–	only after a 2-h incubation
CC[C@H](C)[C@H](NC(=O)[C@H](CCCCN)NC(=O)[C@H](C)NC(=O)[C@H](CCCCN)NC(=O)[C@H](CO)NC(=O)[C@H](CCCCN)NC(=O)[C@H](CCCNC(=N)N)NC(=O)[C@H](Cc1ccccc1)NC(=O)[C@H](Cc1ccccc1)NC(=O)[C@H](C)NC(=O)CNC(=O)[C@H](CC(C)C)NC(=O)[C@@H](N)CC(C)C)C(=O)NCC(=O)N[C@@H](CCCCN)C(=O)N[C@@H](C)C(=O)N[C@@H](Cc1ccccc1)C(=O)N[C@@H](CCCCN)C(=O)N[C@@H](CCCNC(=N)N)C(=O)N[C@H](C(=O)N[C@H](C(=O)N[C@@H](CCC(N)=O)C(=O)N[C@@H](CCCNC(=N)N)C(=O)N[C@H](C(=O)N[C@@H](CCCCN)C(=O)N[C@@H](C)C(=O)N[C@@H](Cc1ccccc1)C(=O)N[C@@H](CC(C)C)C(=O)N[C@@H](CCCNC(=N)N)C(=O)O)[C@@H](C)CC)C(C)C)[C@@H](C)CC [LL-29V2] (H-LLGAFFRKSKAKIGKAFKRIVQRIKAFLR-OH)	1/2	4/6	4/4	1/4	1/3	4/19	–	–	–	–	–	–	–	–	–	–
